What all share (experiment): kinase binding screen (kinase-tagged T7 phage, qPCR), % Ctrl
Background: In qPCR the cycle at which signal appears reflects the starting amount.

In one test the target is T1, TBK1 (Homo sapiens, UniProt Q9UHD2).
T1 sequence (Q9UHD2 1-729): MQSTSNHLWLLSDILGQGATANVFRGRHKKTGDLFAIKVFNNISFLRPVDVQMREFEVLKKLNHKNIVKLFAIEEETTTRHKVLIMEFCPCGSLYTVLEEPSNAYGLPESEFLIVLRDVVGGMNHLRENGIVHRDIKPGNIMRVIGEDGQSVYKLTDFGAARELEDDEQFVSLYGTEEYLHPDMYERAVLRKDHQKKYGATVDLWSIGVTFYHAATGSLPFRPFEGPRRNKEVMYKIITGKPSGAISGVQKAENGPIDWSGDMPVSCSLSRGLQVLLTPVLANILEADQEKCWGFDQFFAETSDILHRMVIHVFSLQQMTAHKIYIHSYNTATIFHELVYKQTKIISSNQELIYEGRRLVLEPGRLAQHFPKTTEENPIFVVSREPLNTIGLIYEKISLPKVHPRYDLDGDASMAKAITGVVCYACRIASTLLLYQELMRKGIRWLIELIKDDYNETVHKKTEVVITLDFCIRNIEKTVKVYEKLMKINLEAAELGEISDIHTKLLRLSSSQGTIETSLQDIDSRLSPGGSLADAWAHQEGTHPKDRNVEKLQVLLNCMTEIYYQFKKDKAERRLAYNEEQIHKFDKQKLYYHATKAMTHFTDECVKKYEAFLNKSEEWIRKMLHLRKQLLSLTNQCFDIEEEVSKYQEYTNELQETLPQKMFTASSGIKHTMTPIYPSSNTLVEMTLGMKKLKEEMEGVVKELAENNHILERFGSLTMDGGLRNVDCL
How it is done:
(§1) Percentage kinase inhibition at a set concentration was performed by methods well known in the prior art (Fabian, M. A. et al. Nat. Biotechnol. 2005, 23, 329; Karaman et al. (2008) Nat. Biotechnol. […], 26, 127). Briefly, kinase-tagged T7 phage strains were grown in parallel in 24-well blocks in an E. coli host derived from the BL21 strain. E. coli were grown to log-phase and infected with T7 phage from a frozen stock (multiplicity of infection=0.4) and incubated with shaking at 32° C. until lysis (90-150 minutes). The lysates were centrifuged (6,000×g) and filtered (0.2 μm) to remove cell debris. […] The liganded beads were blocked with excess biotin and washed with blocking buffer (SeaBlock (Pierce); 1% BSA, 0.05% Tween 20, 1 mM DTT) to remove unbound ligand and to reduce non-specific phage binding. […] Test compounds were prepared as 40× stocks in 100% DMSO and directly diluted into the assay. All reactions were performed in polypropylene 384-well plates in a final volume of 0.04 mL. […] The kinase concentration in the eluates was measured by qPCR.

The target in a further test is T2, ULK3 (Homo sapiens, UniProt Q6PHR2).
T2 sequence (Q6PHR2 1-472): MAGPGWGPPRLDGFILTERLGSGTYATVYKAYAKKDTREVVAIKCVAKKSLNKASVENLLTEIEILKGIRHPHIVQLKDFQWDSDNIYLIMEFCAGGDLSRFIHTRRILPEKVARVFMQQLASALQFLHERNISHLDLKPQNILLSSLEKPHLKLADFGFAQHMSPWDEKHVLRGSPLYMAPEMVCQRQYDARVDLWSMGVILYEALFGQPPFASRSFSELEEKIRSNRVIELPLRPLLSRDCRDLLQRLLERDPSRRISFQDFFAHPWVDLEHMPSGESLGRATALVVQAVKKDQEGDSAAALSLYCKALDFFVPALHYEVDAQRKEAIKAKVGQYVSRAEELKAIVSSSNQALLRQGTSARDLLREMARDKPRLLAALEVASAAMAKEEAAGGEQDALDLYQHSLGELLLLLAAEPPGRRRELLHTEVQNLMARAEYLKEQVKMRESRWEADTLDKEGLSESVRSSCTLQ
How it is done:
as §1

Test [1] concerns the target RPS6KA1(Kin.Dom.2-C-terminal) (Homo sapiens, UniProt Q15418). How it is done: as §1
The next test has as its target T3, GAK (Homo sapiens, UniProt O14976).
T3 sequence (O14976 1-1311): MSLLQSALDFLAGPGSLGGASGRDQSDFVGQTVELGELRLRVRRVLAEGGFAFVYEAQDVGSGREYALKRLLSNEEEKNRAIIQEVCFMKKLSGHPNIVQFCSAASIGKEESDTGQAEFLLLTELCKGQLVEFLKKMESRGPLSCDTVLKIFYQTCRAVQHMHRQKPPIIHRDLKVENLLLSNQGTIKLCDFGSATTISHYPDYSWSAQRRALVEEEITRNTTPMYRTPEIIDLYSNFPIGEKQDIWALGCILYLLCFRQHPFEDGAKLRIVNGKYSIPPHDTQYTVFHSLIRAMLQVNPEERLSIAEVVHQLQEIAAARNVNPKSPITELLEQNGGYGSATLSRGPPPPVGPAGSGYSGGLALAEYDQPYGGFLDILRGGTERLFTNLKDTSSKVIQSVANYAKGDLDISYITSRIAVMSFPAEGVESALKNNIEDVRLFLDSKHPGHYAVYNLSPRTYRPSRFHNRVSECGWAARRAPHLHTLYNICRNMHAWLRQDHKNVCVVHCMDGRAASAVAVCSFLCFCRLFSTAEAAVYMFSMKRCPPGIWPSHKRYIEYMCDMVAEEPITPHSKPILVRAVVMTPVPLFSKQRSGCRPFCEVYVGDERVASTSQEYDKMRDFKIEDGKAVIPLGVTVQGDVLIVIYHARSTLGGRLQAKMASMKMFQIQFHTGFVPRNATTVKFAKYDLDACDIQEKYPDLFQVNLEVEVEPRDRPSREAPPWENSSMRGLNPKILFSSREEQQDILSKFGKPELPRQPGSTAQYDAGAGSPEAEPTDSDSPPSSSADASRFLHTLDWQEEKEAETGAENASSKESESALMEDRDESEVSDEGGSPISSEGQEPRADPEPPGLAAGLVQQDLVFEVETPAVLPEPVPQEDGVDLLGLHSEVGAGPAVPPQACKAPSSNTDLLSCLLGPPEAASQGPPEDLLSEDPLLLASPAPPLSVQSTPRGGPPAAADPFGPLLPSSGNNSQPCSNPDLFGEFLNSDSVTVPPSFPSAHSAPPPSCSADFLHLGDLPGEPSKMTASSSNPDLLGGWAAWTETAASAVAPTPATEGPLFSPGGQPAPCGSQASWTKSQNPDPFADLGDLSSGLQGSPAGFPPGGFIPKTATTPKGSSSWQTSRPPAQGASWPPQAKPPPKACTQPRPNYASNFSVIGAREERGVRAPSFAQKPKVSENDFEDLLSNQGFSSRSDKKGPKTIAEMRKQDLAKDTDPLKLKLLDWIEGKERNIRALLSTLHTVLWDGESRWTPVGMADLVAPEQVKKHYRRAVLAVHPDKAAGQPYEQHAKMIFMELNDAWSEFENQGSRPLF
How it is done:
as §1

Usually remaining activity stands for what remains of the control signal, in per cent.

Chain of RPS6KA1(Kin.Dom.2-C-terminal) (Q15418 418-675 limits assumed, species assumed): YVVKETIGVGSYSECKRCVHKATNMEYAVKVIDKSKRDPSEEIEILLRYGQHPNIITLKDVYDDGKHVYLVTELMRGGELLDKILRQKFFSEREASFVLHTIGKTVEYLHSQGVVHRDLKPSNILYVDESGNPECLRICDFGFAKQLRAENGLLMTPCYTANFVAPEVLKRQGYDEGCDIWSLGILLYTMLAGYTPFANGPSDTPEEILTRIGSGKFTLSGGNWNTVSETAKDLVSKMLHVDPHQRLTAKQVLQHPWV

As to `Nc1nc2c(-c3ccccn3)nccc2[nH]1` [drawing 35, 4-(pyrid-2-yl)-1H-imidazo[4,5-c]pyridin-2-amine], the remaining activity at 1 µM was 50% on TBK1, 51% at ULK3, 33% in test [1] and 54% on GAK.
As to `Nc1nc2c(-c3cnc4ccccc4c3)nccc2[nH]1` [drawing 36, 4-(quinolin-3-yl)-1H-imidazo[4,5-c]pyridin-2-amine], the remaining activity at 1 µM was determined as 79% on TBK1, 87% at ULK3, 92% in test [1] and 91% at GAK.
On to `Nc1nc2c(-c3cc(Br)c(Br)[nH]3)nccc2[nH]1` [Ageladine A, ageladine A, reference compound], for which the remaining activity at 1 µM is 84% on TBK1, 82% on ULK3, 20% in test [1] and 45% at GAK. For the same molecule, the remaining activity at 10 µM turned out to be 78% at TBK1 (10 μM), 81% on ULK3 (10 μM), 22% in test [1] (10 μM) and 19% on GAK (10 μM).

The values above are taken from patent US20110152313A1 (MACQUARIE UNIVERSITY, priority 2008, published 2011).
